Patent publication US5631394A, “Pharmaceutically active ceramide-related compounds” (The Liposome Company, Inc., priority 1995, dated 1997)
Like-named read-outs stand apart in the source and are kept apart here.

Columns and labels:
Assay type in all cases: cell-based
[1] = system: RPMI-7666 cells; assay: % survival, trypan blue exclusion assay, without serum, RPMI-7666; settings: bioactive lipid dose = 20 uM, 2880 min
[2] = system: U-937 cells; assay: % survival, trypan blue exclusion assay, without serum, U-937; settings: bioactive lipid dose = 20 uM, 2880 min
[3] = system: P-388 cells; assay: % survival, trypan blue exclusion assay, without serum, P-388; settings: bioactive lipid dose = 20 uM, 2880 min
[4] = system: RPMI-7666 cells; assay: % survival, trypan blue assay, with serum, RPMI-7666; settings: bioactive lipid dose = 20 uM
[5] = system: U-937 cells; assay: % survival, trypan blue assay, with serum, U-937; settings: bioactive lipid dose = 20 uM
[6] = system: P-388 cells; assay: % survival, trypan blue assay, with serum, P-388; settings: bioactive lipid dose = 20 uM
[7] = system: A549 cells; assay: sulforhodamine B cytotoxicity assay, 72 hour drug exposure, A549
[8] = system: MCF7 cells; assay: sulforhodamine B cytotoxicity assay, 72 hour drug exposure, MCF7
[9] = system: MCF7/ADR cells; assay: sulforhodamine B cytotoxicity assay, 72 hour drug exposure, MCF7/ADR
[10] = system: RPMI 7666 cells; assay: sulforhodamine B cytotoxicity assay, 72 hour drug exposure, RPMI 7666
Description: (§1) These studies were performed using a sulforrhodamine B assay (see Monks et al., J. Natl. Cancer Inst. (U.S.) 83:757 ([…])). Compounds were dissolved in ethanol. Results from these studies, presented in the following tables, are expressed as Gl50 values, that is, concentration of a drug (micromolar) required to inhibit growth of fifty percent of the cells.

[11] = system: U937 cells; assay: sulforhodamine B cytotoxicity assay, 72 hour drug exposure, U937; settings: Homo sapiens, U-937
Description: as §1

[12] = system: LEWIS LUNG cells; assay: sulforhodamine B cytotoxicity assay, 72 hour drug exposure, Lewis lung
[13] = system: C3H10T1/2 cells; assay: sulforhodamine B cytotoxicity assay, 72 hour drug exposure, C3H10T1/2; settings: Mus musculus, C3H 10T1/2
Description: as §1

[14] = system: CAKI 1 cells; assay: sulforhodamine B cytotoxicity assay, 72 hour drug exposure, CAKI 1
[15] = system: OVCAR 3 cells; assay: sulforhodamine B cytotoxicity assay, 72 hour drug exposure, OVCAR 3; settings: Homo sapiens, OVCAR-3, 72 h
[16] = system: HT 29 cells; assay: sulforhodamine B cytotoxicity assay, 72 hour drug exposure, HT 29
[17] = system: SKMEL 28 cells; assay: sulforhodamine B cytotoxicity assay, 72 hour drug exposure, SKMEL 28
[18] = system: P388 cells; assay: sulforhodamine B cytotoxicity assay, 72 hour drug exposure, P388; settings: Mus musculus
Description: as §1

[19] = system: P388/ADR cells; assay: sulforhodamine B cytotoxicity assay, 72 hour drug exposure, P388/ADR; settings: Mus musculus
Description: as §1

CCCCCCCCCCCCC/C=C/[C@@H](O)[C@H](CO)NC(=O)CCCCC [C6-Ceramide, C6-ceramide, reference compound]
% Survival (by trypan blue exclusion assay) [1]: 79% | % Survival (by trypan blue exclusion assay) [2]: 82.6% | % Survival (by trypan blue exclusion assay) [3]: 55.4% | % Survival (by trypan blue assay) [4]: 89.2% | % Survival (by trypan blue assay) [5]: 97% | % Survival (by trypan blue assay) [6]: 84.5% | GI50 ([7]; Homo sapiens, A549, 72 h): 12 ± 4.8 µM | GI50 ([7]; listed as Cer-C6): 8.08 ± 0.06 µM | GI50 ([8]; Homo sapiens, MCF7, 72 h): 24.2 ± 8.5 µM | GI50 ([8]; listed as Cer-C6): 12.7 ± 0.14 µM | GI50 [9]: 36 ± 0.88 µM | GI50 ([9]; Homo sapiens, NCI/ADR-RES, 72 h): 36 ± 0.88 µM | GI50 ([9]; listed as Cer-C6): 26.1 ± 0.85 µM | GI50 [10]: 8.5 ± 3.5 µM | GI50 [11]: 7 ± 1.7 µM | GI50 ([12]; Lewis lung carcinoma, 72 h): 9.6 ± 4.4 µM | GI50 ([12]; listed as Cer-C6): 5.81 µM | GI50 [13]: 14 ± 2.5 µM | GI50 ([14]; Homo sapiens, CAKI-1, 72 h): 6.04 ± 0.23 µM | GI50 ([14]; listed as Cer-C6): 5.88 ± 0.1 µM | GI50 [15]: 15.2 ± 1.77 µM | GI50 ([16]; Homo sapiens, HT-29, 72 h): 4 ± 0.2 µM | GI50 ([16]; listed as Cer-C6): 4.67 ± 0.19 µM | GI50 ([17]; Homo sapiens, SK-MEL-28, 72 h): 13.3 ± 2.51 µM | GI50 ([17]; listed as Cer-C6): 11.55 ± 0.07 µM | GI50 [18]: 6.24 ± 0.3 µM | GI50 [19]: 12.7 ± 1.7 µM
